In ChEMBL document CHEMBL4152382, “Discovery of Tarantula Venom-Derived NaV1.7-Inhibitory JzTx-V Peptide 5-Br-Trp24 Analogue AM-6120 with Systemic Block of Histamine-Induced Pruritis” (J Med Chem, 2018):

Molecular target: Sodium channel protein type 9 subunit alpha (Homo sapiens, UniProt Q15858)
Assay: Inhibition of human Nav1.7 expressed in HEK293 cells at holding potential of -125 mV […] by patchxpress-based electrophysiology assay
Type: cell-based

Sequence of Sodium channel protein type 9 subunit alpha (Q15858 whole entry): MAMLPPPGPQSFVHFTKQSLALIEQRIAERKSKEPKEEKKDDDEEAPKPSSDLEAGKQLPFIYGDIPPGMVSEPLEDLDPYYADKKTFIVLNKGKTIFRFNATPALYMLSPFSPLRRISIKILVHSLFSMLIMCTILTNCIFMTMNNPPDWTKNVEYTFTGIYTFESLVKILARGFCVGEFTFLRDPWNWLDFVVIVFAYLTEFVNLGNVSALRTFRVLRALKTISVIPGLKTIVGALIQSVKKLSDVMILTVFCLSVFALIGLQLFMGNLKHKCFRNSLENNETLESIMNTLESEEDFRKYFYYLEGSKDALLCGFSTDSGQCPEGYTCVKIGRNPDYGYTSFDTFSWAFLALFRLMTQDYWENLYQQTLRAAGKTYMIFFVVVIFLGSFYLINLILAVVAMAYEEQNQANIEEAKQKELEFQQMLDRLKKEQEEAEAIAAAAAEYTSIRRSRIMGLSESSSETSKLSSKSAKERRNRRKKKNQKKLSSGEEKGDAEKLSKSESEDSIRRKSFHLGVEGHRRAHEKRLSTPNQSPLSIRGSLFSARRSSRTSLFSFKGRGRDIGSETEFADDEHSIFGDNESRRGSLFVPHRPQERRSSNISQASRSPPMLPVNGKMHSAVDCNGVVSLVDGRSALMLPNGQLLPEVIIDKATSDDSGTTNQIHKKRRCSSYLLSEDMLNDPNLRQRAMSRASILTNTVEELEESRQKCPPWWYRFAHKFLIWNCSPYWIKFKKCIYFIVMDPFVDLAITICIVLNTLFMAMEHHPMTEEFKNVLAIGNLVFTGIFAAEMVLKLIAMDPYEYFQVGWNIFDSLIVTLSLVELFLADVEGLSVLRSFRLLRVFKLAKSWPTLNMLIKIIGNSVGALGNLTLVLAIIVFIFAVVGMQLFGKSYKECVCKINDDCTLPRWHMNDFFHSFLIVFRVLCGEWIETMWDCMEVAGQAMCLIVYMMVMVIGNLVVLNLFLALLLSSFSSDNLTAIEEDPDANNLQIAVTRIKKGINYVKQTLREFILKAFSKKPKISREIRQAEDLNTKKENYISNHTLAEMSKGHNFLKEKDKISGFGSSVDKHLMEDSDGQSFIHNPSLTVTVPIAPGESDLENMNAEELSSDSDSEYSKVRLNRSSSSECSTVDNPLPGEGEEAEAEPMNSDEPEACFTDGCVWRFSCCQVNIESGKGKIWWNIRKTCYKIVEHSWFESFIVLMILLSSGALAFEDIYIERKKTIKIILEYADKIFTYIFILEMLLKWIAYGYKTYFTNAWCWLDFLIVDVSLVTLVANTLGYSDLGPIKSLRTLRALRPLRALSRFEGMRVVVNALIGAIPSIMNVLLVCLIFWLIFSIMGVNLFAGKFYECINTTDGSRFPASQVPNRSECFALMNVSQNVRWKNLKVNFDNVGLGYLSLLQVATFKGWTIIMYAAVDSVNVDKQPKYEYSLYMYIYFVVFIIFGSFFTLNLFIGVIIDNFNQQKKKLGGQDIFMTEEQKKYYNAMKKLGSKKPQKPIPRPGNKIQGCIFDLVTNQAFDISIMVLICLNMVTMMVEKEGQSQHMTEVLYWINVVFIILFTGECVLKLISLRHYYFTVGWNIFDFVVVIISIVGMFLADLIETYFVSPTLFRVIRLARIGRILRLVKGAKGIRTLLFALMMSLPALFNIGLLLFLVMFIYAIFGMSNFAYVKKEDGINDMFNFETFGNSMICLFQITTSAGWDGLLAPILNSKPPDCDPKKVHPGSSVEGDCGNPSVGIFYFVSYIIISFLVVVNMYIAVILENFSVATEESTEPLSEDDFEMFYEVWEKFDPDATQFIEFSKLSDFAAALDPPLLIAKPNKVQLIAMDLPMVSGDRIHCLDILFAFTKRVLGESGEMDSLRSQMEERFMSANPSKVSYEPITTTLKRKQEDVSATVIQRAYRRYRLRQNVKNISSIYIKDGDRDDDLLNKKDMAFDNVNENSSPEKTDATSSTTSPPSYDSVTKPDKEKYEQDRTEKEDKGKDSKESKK

Compound: C#CC[C@H](N)C(=O)N[C@@H](Cc1ccc(O)cc1)C(=O)N[C@H]1CSSC[C@@H]2NC(=O)[C@@H]3CSSC[C@@H](C(=O)N[C@@H](CCCNC(=N)N)C(=O)N[C@@H](CCCCN)C(=O)N[C@@H](CCC(=O)O)C(=O)N[C@H](C(N)=O)[C@@H](C)CC)NC(=O)[C@H](Cc4c[nH]c5ccccc45)NC(=O)[C@H](CC(C)C)NC(=O)[C@H](CCCCN)NC(=O)[C@H](CSSC[C@H](NC(=O)[C@H]([C@@H](C)O)NC(=O)[C@H](CCc4ccccc4)NC(=O)[C@H](CCCC)NC(=O)[C@H](Cc4c[nH]c5ccccc45)NC(=O)[C@H](CCCCN)NC(=O)[C@H](CCC(N)=O)NC1=O)C(=O)N[C@@H](CC(=O)O)C(=O)N[C@@H](CO)C(=O)N[C@@H](CCCCN)C(=O)N[C@@H](CCCNC(=N)N)C(=O)N[C@@H](C)C(=O)N3)NC(=O)[C@H](CCCNC(=N)N)NC(=O)[C@H](CC(C)C)NC(=O)CNC(=O)[C@H](CCC(=O)O)NC2=O
- IC50: 6.8 nM

Compound: C#CC[C@H](N)C(=O)N[C@@H](Cc1ccc(O)cc1)C(=O)N[C@H]1CSSC[C@@H]2NC(=O)[C@@H]3CSSC[C@@H](C(=O)N[C@@H](CCCNC(=N)N)C(=O)N[C@@H](CCCCN)C(=O)N[C@@H](CCC(=O)O)C(=O)N[C@H](C(N)=O)[C@@H](C)CC)NC(=O)[C@H](Cc4c[nH]c5c(Br)cccc45)NC(=O)[C@H](CC(C)C)NC(=O)[C@H](CCCCN)NC(=O)[C@H](CSSC[C@H](NC(=O)[C@H]([C@@H](C)O)NC(=O)[C@H](Cc4c[nH]c5ccccc45)NC(=O)[C@H](CCCC)NC(=O)[C@H](Cc4c[nH]c5ccccc45)NC(=O)[C@H](CCCCN)NC(=O)[C@H](CCC(N)=O)NC1=O)C(=O)N[C@@H](CC(=O)O)C(=O)N[C@@H](CO)C(=O)N[C@@H](CCCCN)C(=O)N[C@@H](CCCNC(=N)N)C(=O)N[C@@H](C)C(=O)N3)NC(=O)[C@H](CCCNC(=N)N)NC(=O)[C@H](CC(C)C)NC(=O)CNC(=O)[C@H](CCC(=O)O)NC2=O
- IC50: 24 nM

Compound: C#CC[C@H](N)C(=O)N[C@@H](Cc1ccc(O)cc1)C(=O)N[C@H]1CSSC[C@@H]2NC(=O)[C@@H]3CSSC[C@@H](C(=O)N[C@@H](CCCNC(=N)N)C(=O)N[C@@H](CCCCN)C(=O)N[C@@H](CCC(=O)O)C(=O)N[C@H](C(N)=O)[C@@H](C)CC)NC(=O)[C@H](Cc4c[nH]c5ccc(Br)cc45)NC(=O)[C@H](CC(C)C)NC(=O)[C@H](CCCCN)NC(=O)[C@H](CSSC[C@H](NC(=O)[C@H]([C@@H](C)O)NC(=O)[C@H](Cc4c[nH]c5ccccc45)NC(=O)[C@H](CCCC)NC(=O)[C@H](CCc4ccccc4)NC(=O)[C@H](CCCCN)NC(=O)[C@H](CCC(N)=O)NC1=O)C(=O)N[C@@H](CC(=O)O)C(=O)N[C@@H](CO)C(=O)N[C@@H](CCCCN)C(=O)N[C@@H](CCCNC(=N)N)C(=O)N[C@@H](C)C(=O)N3)NC(=O)[C@H](CCCNC(=N)N)NC(=O)[C@H](CC(C)C)NC(=O)CNC(=O)[C@H](CCC(=O)O)NC2=O
- IC50: 1 nM

Compound: C#CC[C@H](N)C(=O)N[C@@H](Cc1ccc(O)cc1)C(=O)N[C@H]1CSSC[C@@H]2NC(=O)[C@@H]3CSSC[C@@H](C(=O)N[C@@H](CCCNC(=N)N)C(=O)N[C@@H](CCCCN)C(=O)N[C@@H](CCC(=O)O)C(=O)N[C@H](C(N)=O)[C@@H](C)CC)NC(=O)[C@H](Cc4c[nH]c5ccccc45)NC(=O)[C@H](C4CCCCC4)NC(=O)[C@H](CCCCN)NC(=O)[C@H](CSSC[C@H](NC(=O)[C@H]([C@@H](C)O)NC(=O)[C@H](Cc4c[nH]c5ccccc45)NC(=O)[C@H](CCCC)NC(=O)[C@H](Cc4c[nH]c5ccccc45)NC(=O)[C@H](CCCCN)NC(=O)[C@H](CCC(N)=O)NC1=O)C(=O)N[C@@H](CC(=O)O)C(=O)N[C@@H](CO)C(=O)N[C@@H](CCCCN)C(=O)N[C@@H](CCCNC(=N)N)C(=O)N[C@@H](C)C(=O)N3)NC(=O)[C@H](CCCNC(=N)N)NC(=O)[C@H](CC(C)C)NC(=O)CNC(=O)[C@H](CCC(=O)O)NC2=O
- IC50: 0.5 nM

Compound: C#CC[C@H](N)C(=O)N[C@@H](Cc1ccc(O)cc1)C(=O)N[C@H]1CSSC[C@@H]2NC(=O)[C@@H]3CSSC[C@@H](C(=O)N[C@@H](CCCNC(=N)N)C(=O)N[C@@H](CCCCN)C(=O)N[C@@H](CCC(=O)O)C(=O)N[C@H](C(N)=O)[C@@H](C)CC)NC(=O)[C@H](CCc4ccccc4)NC(=O)[C@H](CC(C)C)NC(=O)[C@H](CCCCN)NC(=O)[C@H](CSSC[C@H](NC(=O)[C@H]([C@@H](C)O)NC(=O)[C@H](Cc4c[nH]c5ccccc45)NC(=O)[C@H](CCCC)NC(=O)[C@H](Cc4c[nH]c5ccccc45)NC(=O)[C@H](CCCCN)NC(=O)[C@H](CCC(N)=O)NC1=O)C(=O)N[C@@H](CC(=O)O)C(=O)N[C@@H](CO)C(=O)N[C@@H](CCCCN)C(=O)N[C@@H](CCCNC(=N)N)C(=O)N[C@@H](C)C(=O)N3)NC(=O)[C@H](CCCNC(=N)N)NC(=O)[C@H](CC(C)C)NC(=O)CNC(=O)[C@H](CCC(=O)O)NC2=O
- IC50: > 1000 nM

Compound: C#CC[C@H](N)C(=O)N[C@@H](Cc1ccc(O)cc1)C(=O)N[C@H]1CSSC[C@@H]2NC(=O)[C@@H]3CSSC[C@@H](C(=O)N[C@@H](CCCNC(=N)N)C(=O)N[C@@H](CCCCN)C(=O)N[C@@H](CCC(=O)O)C(=O)N[C@H](C(N)=O)[C@@H](C)CC)NC(=O)[C@H](Cc4c[nH]c5ccc(Br)cc45)NC(=O)[C@H](C4CCCCC4)NC(=O)[C@H](CCCCN)NC(=O)[C@H](CSSC[C@H](NC(=O)[C@H]([C@@H](C)O)NC(=O)[C@H](Cc4c[nH]c5ccccc45)NC(=O)[C@H](CCCC)NC(=O)[C@H](Cc4c[nH]c5ccccc45)NC(=O)[C@H](CCCCN)NC(=O)[C@H](CCC(N)=O)NC1=O)C(=O)N[C@@H](CC(=O)O)C(=O)N[C@@H](CO)C(=O)N[C@@H](CCCCN)C(=O)N[C@@H](CCCNC(=N)N)C(=O)N[C@@H](C)C(=O)N3)NC(=O)[C@H](CCCNC(=N)N)NC(=O)[C@H](CC(C)C)NC(=O)CNC(=O)[C@H](CCC(=O)O)NC2=O
- IC50: 19.6 nM

Compound: C#CC[C@H](NC(=O)[C@@H](N)CCC(=O)O)C(=O)N[C@H]1CSSC[C@@H]2NC(=O)[C@@H]3CSSC[C@@H](C(=O)N[C@@H](CCCNC(=N)N)C(=O)N[C@@H](CCCCN)C(=O)N[C@@H](CCC(=O)O)C(=O)N[C@H](C(N)=O)[C@@H](C)CC)NC(=O)[C@H](Cc4c[nH]c5ccc(Br)cc45)NC(=O)[C@H](CC(C)C)NC(=O)[C@H](CCCCN)NC(=O)[C@H](CSSC[C@H](NC(=O)[C@H]([C@@H](C)O)NC(=O)[C@H](Cc4c[nH]c5ccccc45)NC(=O)[C@H](CCCC)NC(=O)[C@H](Cc4c[nH]c5ccccc45)NC(=O)[C@H](CCCCN)NC(=O)[C@H](CCC(N)=O)NC1=O)C(=O)N[C@@H](CC(=O)O)C(=O)N[C@@H](CO)C(=O)N[C@@H](CCCCN)C(=O)N[C@@H](CCCNC(=N)N)C(=O)N[C@@H](C)C(=O)N3)NC(=O)[C@H](CCCNC(=N)N)NC(=O)[C@H](CC(C)C)NC(=O)CNC(=O)[C@H](CCC(=O)O)NC2=O
- IC50: 0.3 nM

Compound: C#CC[C@H](N)C(=O)N[C@@H](Cc1ccc(O)cc1)C(=O)N[C@H]1CSSC[C@@H]2NC(=O)[C@@H]3CSSC[C@@H](C(=O)N[C@@H](CCCNC(=N)N)C(=O)N[C@@H](CCCCN)C(=O)N[C@@H](CCC(=O)O)C(=O)N[C@@H](CC4CCCCC4)C(N)=O)NC(=O)[C@H](Cc4c[nH]c5ccccc45)NC(=O)[C@H](CC(C)C)NC(=O)[C@H](CCCCN)NC(=O)[C@H](CSSC[C@H](NC(=O)[C@H]([C@@H](C)O)NC(=O)[C@H](Cc4c[nH]c5ccccc45)NC(=O)[C@H](CCCC)NC(=O)[C@H](Cc4c[nH]c5ccccc45)NC(=O)[C@H](CCCCN)NC(=O)[C@H](CCC(N)=O)NC1=O)C(=O)N[C@@H](CC(=O)O)C(=O)N[C@@H](CO)C(=O)N[C@@H](CCCCN)C(=O)N[C@@H](CCCNC(=N)N)C(=O)N[C@@H](C)C(=O)N3)NC(=O)[C@H](CCCNC(=N)N)NC(=O)[C@H](CC(C)C)NC(=O)CNC(=O)[C@H](CCC(=O)O)NC2=O
- IC50: 0.6 nM

Compound: C#CC[C@H](N)C(=O)N[C@@H](Cc1ccc(O)cc1)C(=O)N[C@H]1CSSC[C@@H]2NC(=O)[C@@H]3CSSC[C@@H](C(=O)N[C@@H](CCCNC(=N)N)C(=O)N[C@@H](CCCCN)C(=O)N[C@@H](CCC(=O)O)C(=O)N[C@H](C(N)=O)[C@@H](C)CC)NC(=O)[C@H](Cc4ccccc4)NC(=O)[C@H](CC(C)C)NC(=O)[C@H](CCCCN)NC(=O)[C@H](CSSC[C@H](NC(=O)[C@H]([C@@H](C)O)NC(=O)[C@H](Cc4c[nH]c5ccccc45)NC(=O)[C@H](CCCC)NC(=O)[C@H](Cc4c[nH]c5ccccc45)NC(=O)[C@H](CCCCN)NC(=O)[C@H](CCC(N)=O)NC1=O)C(=O)N[C@@H](CC(=O)O)C(=O)N[C@@H](CO)C(=O)N[C@@H](CCCCN)C(=O)N[C@@H](CCCNC(=N)N)C(=O)N[C@@H](C)C(=O)N3)NC(=O)[C@H](CCCNC(=N)N)NC(=O)[C@H](CC(C)C)NC(=O)CNC(=O)[C@H](CCC(=O)O)NC2=O
- IC50: 15 nM

Compound: C#CC[C@H](N)C(=O)N[C@@H](Cc1ccc(O)cc1)C(=O)N[C@H]1CSSC[C@@H]2NC(=O)[C@@H]3CSSC[C@@H](C(=O)N[C@@H](CCCNC(=N)N)C(=O)N[C@@H](CCCCN)C(=O)N[C@@H](CCC(=O)O)C(=O)N[C@H](C(N)=O)[C@@H](C)CC)NC(=O)[C@H](Cc4c[nH]c5ccccc45)NC(=O)[C@H](CC(C)C)NC(=O)[C@H](CCCCN)NC(=O)[C@H](CSSC[C@H](NC(=O)[C@H]([C@@H](C)O)NC(=O)[C@H](Cc4c[nH]c5ccccc45)NC(=O)[C@H](CCCC)NC(=O)[C@H](Cc4c[nH]c5ccc(Br)cc45)NC(=O)[C@H](CCCCN)NC(=O)[C@H](CCC(N)=O)NC1=O)C(=O)N[C@@H](CC(=O)O)C(=O)N[C@@H](CO)C(=O)N[C@@H](CCCCN)C(=O)N[C@@H](CCCNC(=N)N)C(=O)N[C@@H](C)C(=O)N3)NC(=O)[C@H](CCCNC(=N)N)NC(=O)[C@H](CC(C)C)NC(=O)CNC(=O)[C@H](CCC(=O)O)NC2=O
- IC50: 22 nM

Compound: C#CC[C@H](NC(=O)[C@H](C)N)C(=O)N[C@H]1CSSC[C@@H]2NC(=O)[C@@H]3CSSC[C@@H](C(=O)N[C@@H](CCCNC(=N)N)C(=O)N[C@@H](CCCCN)C(=O)N[C@@H](CCC(=O)O)C(=O)N[C@H](C(N)=O)[C@@H](C)CC)NC(=O)[C@H](Cc4c[nH]c5ccc(Br)cc45)NC(=O)[C@H](CC(C)C)NC(=O)[C@H](CCCCN)NC(=O)[C@H](CSSC[C@H](NC(=O)[C@H]([C@@H](C)O)NC(=O)[C@H](Cc4c[nH]c5ccccc45)NC(=O)[C@H](CCCC)NC(=O)[C@H](Cc4c[nH]c5ccccc45)NC(=O)[C@H](CCCCN)NC(=O)[C@H](CCC(N)=O)NC1=O)C(=O)N[C@@H](CC(=O)O)C(=O)N[C@@H](CO)C(=O)N[C@@H](CCCCN)C(=O)N[C@@H](CCCNC(=N)N)C(=O)N[C@@H](C)C(=O)N3)NC(=O)[C@H](CCCNC(=N)N)NC(=O)[C@H](CC(C)C)NC(=O)CNC(=O)[C@H](CCC(=O)O)NC2=O
- IC50: 1 nM
